Test results as given in patent US20250332173A1, “COMPOUNDS AND METHODS FOR MODULATING NUCLEIC ACID SPLICING” (REMIX THERAPEUTICS INC., priority 2021, published 2025).
Where two headings read alike, the source gives them in different places.

Columns and labels:
[1] = test system: HTT mRNA; test: RT-qPCR splicing assay, HTT canonical junction (CJ) and alternative junction (AJ) mRNA; format: cell-based, human; settings: Homo sapiens; for AC50: increase in HTT alternative junction (AJ) mRNA, read-out: HTT AJ AC50
Procedure: (§1) The expression of a target mRNA was measured by detecting the formation of an exon-exon junction in the canonical transcript (CJ). A compound mediated exon-inclusion event was detected by observing an increase in formation of a new junction with an alternative exon (AJ). Real-time qPCR assays were used to detect these splicing switches and interrogate the potency of various compounds towards different target genes. A high-throughput real time quantitative PCR (RT-qPCR) assay was developed to measure these two isoforms of the mRNA (CJ and AJ) for exemplary genes, such as HTT, SMN2, and MYB, together with a control housekeeping gene, GAPDH or GUSB or PPIA, used for normalization. Briefly, the A673 or K562 cell line was treated with various compounds described herein (e.g., compounds of Formula (I)). After treatment, the levels of the HTT, MYB, or SMN2 mRNA targets were determined from each sample of cell lysate by cDNA synthesis followed by qPCR.
(§2) • Cells-to-CT 1-step kit: ThermoFisher A25602, Cells-to-CT lysis reagent: ThermoFisher 4391851C, TaqMan™ Fast Virus 1-Step Master Mix: ThermoFisher 4444436 • GAPDH: VIC-PL, ThermoFisher 4326317E (Assay: Hs99999905_m1)—used for K562/suspension cell lines • GUSB: VIC-PL, ThermoFisher 4326320E (Assay: Hs99999908_m1)—used for K562/suspension cell lines • PPIA: VIC-PL, ThermoFisher 4326316E (Assay: Hs99999904_m1)—used for A673/adherent cell lines
(§3) The A673 cell line was cultured in DMEM with 10% FBS. Cells were diluted with full growth media and plated in a 96-well plate (15,000 cells in 100 ul media per well). The plate was incubated at 37° C. with 5% CO2 for 24 hours to allow cells to adhere. An 11-point 3-fold serial dilution of the compounds was made in DMSO then diluted in media in an intermediate plate. Compounds were transferred from the intermediate plate to the cell plate with the top dose at a final concentration of 10 uM in the well. Final DMSO concentration was kept at or below 0.25%. The cell plate was returned to the incubator at 37° C. with 5% CO2 for an additional 24 hours.
(§4) The K562 cell line was cultured in IMDM with 10% FBS. For K562, cells were diluted with full growth media and plated in either a 96-well plate (50,000 cells in 50 uL media per well) or a 384-well plate (8,000-40,000 cells in 45 uL media per well). An 11-point 3-fold serial dilution of the compounds were made in DMSO then diluted in media in an intermediate plate. Compound was transferred from the intermediate plate to the cell plate with the top dose at a final concentration of 10 uM in the well. Final DMSO concentration was kept at or below 0.25%. Final volume was 100 uL for 96-well plate and 50 uL for 384-well plate. The cell plate was then placed in an incubator at 37° C. with 5% CO2 for 24 hours.
(§5) The cells were then gently washed with 50 uL-100 uL cold PBS before proceeding to addition of lysis buffer. 30 uL-50 uL of room temperature lysis buffer with DNAse I (and optionally RNAsin) was added to each well. Cells were shaken/mixed thoroughly at room temperature for 5-10 minutes for lysis to take place and then 3 uL-5 uL of room temperature stop solution was added and wells were shaken/mixed again. After 2-5 minutes, the cell lysate plate was transferred to ice for RT-qPCR reaction setup. The lysates could also be frozen at −80° C. for later use.
(§6) In some cases, a direct lysis buffer was used. An appropriate volume of 3× lysis buffer (10 mM Tris, 150 mM NaCl, 1.5%-2.5% Igepal and 0.1-1 U/uL RNAsin, pH 7.4) was directly added to either K562 or A673 cells in media and mixed by pipetting 3 times. The plates were then incubated at room temperature with shaking/rocking for 20-50 minutes to allow for lysis to take place. After this time, the cell lysate plate was transferred to ice to set up for the RT-qPCR reactions. The lysates could also be frozen at −80° C. for later use.

[2] = test system: MYB mRNA; test: RT-qPCR splicing assay, MYB canonical junction (CJ) and alternative junction (AJ) mRNA; format: cell-based, human; settings: Homo sapiens; for AC50: increase in MYB alternative junction (AJ) mRNA, read-out: MYB AJ AC50
Procedure: as §1, §2, §3, §4, §5, §6

[3] = test system: SMN2 mRNA; test: RT-qPCR splicing assay, SMN2 canonical junction (CJ) mRNA; format: cell-based, human; settings: Homo sapiens; canonical junction qPCR panel, Table 5; read-out: SMN2 (decrease in CJ mRNA levels, IC50)
Procedure: as §1, §3, §4, §5, §6
(§7) To set up 10 uL RT-qPCR reactions, cell lysates were transferred to 384-well qPCR plates containing the master mix according to the table below. The plates were sealed, gently vortexed, and spun down before the run. The volumes were adjusted accordingly in some instances where the reaction was carried in 20 uL. The table below summarizes the components of the RT-qPCR reactions:
(§8) The RT-qPCR reaction was performed using a QuantStudio (ThermoFisher) under the following fast cycling conditions.

[4] = test system: Target C; test: RT-qPCR splicing assay panel, Target C canonical junction (CJ) mRNA; format: cell-based, human; settings: Homo sapiens; canonical junction qPCR panel, Table 5; read-out: Target C (decrease in CJ mRNA levels, IC50)
Procedure: as §1, §3, §4, §5, §6, §7, §8

[5] = test system: K562 (human chronic myelogenous leukemia) cells; test: Cell Titer Glo 2.0 cell viability assay; format: cell-based; settings: Homo sapiens, K562, 72 h, K562 cells, 72 hours, Cell Titer Glo 2.0; read-out: K562 GI50
[6] = decrease in HTT canonical junction (CJ) mRNA, RT-qPCR, read-out: HTT CJ IC50
[7] = canonical junction qPCR panel, Table 5, read-out: HTT (decrease in CJ mRNA levels, IC50)
[8] = canonical junction qPCR panel, Table 5, read-out: MYB (decrease in CJ mRNA levels, IC50)
[9] = decrease in MYB canonical junction (CJ) mRNA, RT-qPCR, read-out: MYB CJ IC50

Structure (SMILES) | IC50 [1, 6] [µM] | IC50 [1, 7] [µM] | IC50 [2, 8] [µM] | IC50 [2, 9] [µM] | IC50 [3] [µM] | IC50 [4] [µM] | GI50 [5] [µM] | AC50 ([1]; RT-qPCR) [µM] | AC50 ([2]; RT-qPCR) [µM]
Cn1cc2cc(-c3ccc4c(=O)n(C5CCNCC5)ccc4n3)c(O)c(C#N)c2n1 [Compound 1283] | 0.1 to 1 | 0.1 to 1 | 0.1 to 1 | 0.1 to 1 | < 0.1 | 1 to 10 |  | 0.1 to 1 | 0.1 to 1
Cc1cn2nc(-c3ccc4c(=O)n([C@@H]5CCNC6(CC6)C5)ncc4n3)cc(C)c2n1 [Compound 1298] | < 0.1 | < 0.1 | 0.1 to 1 | 0.1 to 1 | < 0.1 | 0.1 to 1 |  | < 0.1 | 0.1 to 1
Cc1c(O)c(-c2ncc3c(=O)n([C@@H]4CCNC(C)(C)C4)ccc3n2)cc2cn(C)nc12 [Compound 1435] | 1 to 10 | 1 to 10 | 0.1 to 1 | 0.1 to 1 | < 0.1 | > 10 | 0.1 to 1 | 1 to 10 | 0.1 to 1
Cc1c(O)c(-c2ncc3c(=O)n([C@H]4C[C@H]5COC[C@@H](C4)N5)ccc3n2)cc2cn(C)nc12 [Compound 1472] | 1 to 10 | 1 to 10 | 0.1 to 1 | 0.1 to 1 | 0.1 to 1 | 1 to 10 | 1 to 10 | 1 to 10 | 0.1 to 1
Cc1c(O)c(-c2ncc3c(=O)n([C@H]4CC[C@@H](N)C4)ccc3n2)cc2cn(C)nc12 [Compound 1473, 6-[(1S,3R)-3-aminocyclopentyl]-2-(6-hydroxy-2,7-dimethyl-indazol-5-yl)pyrido[4,3-d]pyrimidin-5-one] | > 10 | 1 to 10 | 0.1 to 1 | 0.1 to 1 | < 0.1 | 1 to 10 | 0.1 to 1 | 1 to 10 | 0.1 to 1
C[C@@H]1C[C@H](n2ccc3nc(-c4cc5cn(C)nc5cc4O)ncc3c2=O)CCN1 [Compound 1474] | 1 to 10 | 1 to 10 | 0.1 to 1 | 1 to 10 | < 0.1 | 1 to 10 | 0.1 to 1 | 1 to 10 | 0.1 to 1
Cc1cn2cc(-c3ccc4c(=O)n([C@@H]5CCN[C@H](C)C5)ccc4n3)cc(F)c2n1 [Compound 1475] | > 10 | 1 to 10 | 1 to 10 | 1 to 10 | 0.1 to 1 | 1 to 10 | 1 to 10 | 1 to 10 | 1 to 10
CN[C@H]1CC[C@@H](n2ccc3nc(-c4cc5cn(C)nc5c(C)c4O)ncc3c2=O)C1 [Compound 1478, 2-(6-hydroxy-2,7-dimethyl-indazol-5-yl)-6-[(1R,3S)-3-(methylamino)cyclopentyl]pyrido[4,3-d]pyrimidin-5-one] | 1 to 10 | 1 to 10 | 0.1 to 1 | 0.1 to 1 | < 0.1 | 1 to 10 | 0.1 to 1 | 1 to 10 | 0.1 to 1
Cc1cn2cc(-c3ncc4c(=O)n([C@@H]5C[C@@H](C)N[C@@H](C)C5)ccc4n3)cc(F)c2n1 [Compound 1480, 6-[(2R,6S)-2,6-dimethyl-4-piperidyl]-2-(8-fluoro-2-methyl-imidazo[1,2-a]pyridin-6-yl)pyrido[4,3-d]pyrimidin-5-one] | 0.1 to 1 | 0.1 to 1 | 0.1 to 1 | 0.1 to 1 | 0.1 to 1 | 0.1 to 1 | 0.1 to 1 | 0.1 to 1 | 0.1 to 1

Further lines, with some results ahead:

IC50 [1, 6] [µM] | IC50 [1, 7] [µM] | IC50 [2, 8] [µM] | IC50 [2, 9] [µM] | IC50 [3] [µM] | IC50 [4] [µM] | GI50 [5] [µM] | Structure (SMILES) | AC50 ([1]; RT-qPCR) [µM] | AC50 ([2]; RT-qPCR) [µM]
1 to 10 | 0.1 to 1 | < 0.1 | 0.1 to 1 | < 0.1 | 1 to 10 | < 0.1 | Cn1cc2cc(-c3ccc4c(=O)n(C56CCC(N)(CC5)C6)ccc4n3)c(O)cc2n1 [Compound 1481, 6-(4-aminonorbornane-1-yl)-2-(6-hydroxy-2-methyl-indazol-5-yl)-1,6-naphthyridin-5-one] | 0.1 to 1 | < 0.1
1 to 10 | 1 to 10 | < 0.1 | 0.1 to 1 | < 0.1 | 0.1 to 1 | < 0.1 | Cc1cn2cc(-c3ncc4c(=O)n(C5C[C@H](C)N[C@@H](C)C5)ccc4n3)cc(F)c2n1 (stereo partly drawn) [Compound 1482, 6-[(2S,6S)-2,6-dimethyl-4-piperidyl]-2-(8-fluoro-2-methyl-imidazo[1,2-a]pyridin-6yl)pyrido[4,3-d]pyrimidin-5-one] | 1 to 10 | < 0.1
1 to 10 | 0.1 to 1 | 0.1 to 1 | 1 to 10 | < 0.1 | 0.1 to 1 | 0.1 to 1 | Cc1cn2cc(-c3ncc4c(=O)n(C5C[C@@H](C)N[C@H](C)C5)ccc4n3)cc(F)c2n1 (stereo partly drawn) [Compound 1483, 6-[(2R,6R)-2,6-dimethyl-4-piperidyl]-2-(8-fluoro-2-methyl-imidazo[1,2-a]pyridin-6-yl)pyrido[4,3-d]pyrimidin-5-one] | 0.1 to 1 | 0.1 to 1
0.1 to 1 | < 0.1 | < 0.1 | < 0.1 | < 0.1 | 0.1 to 1 | < 0.1 | Cc1c(O)c(-c2ccc3c(=O)n([C@H]4CC[C@H](N(C)C)CC4)ccc3n2)cc2cn(C)nc12 [Compound 1484, 6-[4-(dimethylamino)cyclohexyl]-2-(6-hydroxy-2,7-dimethyl-indazol-5-yl)-1,6-naphthyridin-5-one] | < 0.1 | < 0.1
0.1 to 1 | 0.1 to 1 | 0.1 to 1 | 0.1 to 1 | < 0.1 | 0.1 to 1 | 0.1 to 1 | Cc1c(O)c(-c2ccc3c(=O)n([C@H]4CC[C@@H](N(C)C)CC4)ccc3n2)cc2cn(C)nc12 [Compound 1485, 6-[4-(dimethylamino)cyclohexyl]-2-(6-hydroxy-2,7-dimethyl-indazol-5-yl)-1,6-naphthyridin-5-one] | 0.1 to 1 | 0.1 to 1
